In patent US20260373127A1, “USE OF DIHYDROBERBERINE OR ITS DERIVATIVES FOR REGULATING GLP-1” (NANJING NUTRABUILDING BIO-TECH CO., LTD., priority 2024, published 2026):

How the values were obtained:
[1] = Acute intervention study on appetite measures in human; assay type: in vivo; conditions: single 200 mg dose
[2] = Change of body weight, 8-week mouse study; assay type: in vivo, mice; conditions: for body weight: DHB 1.5 mg/kg daily intragastric
Description: (§1) At the beginning of the experiment, the mice were divided randomly into control mice (Group 1, n=8), HFD group (Group 2, n=8), HFD+DHB group (Group 3, n=8) and NC+DHB group (Group 4, n=8). The dosage of DHB supplementation is 1.5 mg/kg. The group 1 is the control group and is given the normal chow; the group 2 is the high-fat mouse and continue high fat diet for 8 weeks; the group 3 also continued to eat a high-fat diet and received daily intragastric administration of sample for 8 weeks; the group 4 is given the normal chow and received daily intragastric administration of sample for 8 weeks. Record the body fat and weight of each group of mice every week. Complete Oral glucose tolerance test (OGTT)/Insulin intraperitoneal tolerance test (IPTT) on the last day of week 8, then execute the mice and take serum −80 °C for storage.
Change of body weight: Weigh once a week at a fixed time from beginning of the experiment.

GLP-1 [3] = assay: GLP-1 in another 14-week mice experiment; assay type: in vivo; conditions: 35 mg/kg, at week 14
GLP-1 [4] = assay: Serum GLP-1 by ELISA; assay type: in vivo, mice; conditions: 1.5 mg/kg; result in words
Description: as §1
(§2) Serum detection by ELISA: At week 8th of the experiment, the whole blood is extracted by removing the eyeball. The serum was acquired after centrifugation (10000 rpm 15 mins), stored at −80 °C for later use. Determinate the concentration of insulin (INS), cholesterol (TC), triglycerides (TG), LDL (low density lipoprotein), HDL (high density lipoprotein), GLP-1 in serum by ELISA kits.

[5] = Body weight in another 14-week mice experiment; assay type: in vivo; conditions: 35 mg/kg
Weight of the fat pad = assay type: in vivo, mice; conditions: 1.5 mg/kg; result in words
Description: as §1
Weight of the fat pad: At the 17th week, the mice were sacrificed, and the fat pads (subcutaneous, epididymis and perirenal) were dissected, photographed and weighed.

[6] = Fasting blood glucose in another 14-week mice experiment; assay type: in vivo; conditions: 35 mg/kg, at week 13
[7] = Body composition analysis (fat content), 8-week mouse study; assay type: in vivo, mice; conditions: 1.5 mg/kg daily intragastric, 8 weeks
Description: as §1
Body composition analysis: During the experiment, the fat mass and lean mass was measured by Nuclear Magnetic Resonance Body Composition Analyzer once a week.

[8] = Insulin intraperitoneal tolerance test (IPTT); assay type: in vivo, mice
Description: as §1
(§3) Measurement of Blood Glucose: Oral glucose tolerance test (OGTT): At week 16th of the experiment, after fasting for 15 h, Glucose was given […] (2 g/kg), and blood Glucose was measured at 0, 15, 30, 60, 90, 120 mins. Insulin intraperitoneal tolerance test (IPTT): At week 16th of the experiment, after fasting for 15h, insulin (1U/kg) was injected intraperitoneally and blood glucose was measured at 0, 15, 30, 60, 90, 120 mins.

[9] = Serum lipids (TC, TG, LDL, HDL) by ELISA; assay type: in vivo, mice
Description: as §1, §2

[10] = Oral glucose tolerance test (OGTT); assay type: in vivo, mice
Description: as §1, §3

insulin (INS) = assay: Serum insulin (INS) by ELISA; assay type: in vivo, mice; conditions: 1.5 mg/kg; result in words
Description: as §1, §2

[11] = HFD+DHB group, 1.5 mg/kg daily intragastric, 8 weeks
[12] = NC+DHB group, 1.5 mg/kg daily intragastric, 8 weeks

Q: Which subjective appetite [1] does the source give for `COc1ccc2c(c1OC)CN1CCc3cc4c(cc3C1=C2)OCO4` [DHB, dihydroberberine] here?
A: decreases subjective appetite

Q: What about the composite appetite score ([1]; vs placebo) of the same molecule?
A: beat placebo

Q: And the desire to eat ([1]; vs placebo)?
A: beat placebo

Q: What about the fullness ([1]; vs placebo) of the same molecule?
A: beat placebo

Q: And the hunger ([1]; vs placebo)?
A: beat placebo

Q: And the prospective food consumption ([1]; vs placebo)?
A: beat placebo

Q: And the body weight curve ([2]; DHB groups, 1.5 mg/kg, 8 weeks, result in words)?
A: helpful in inhibiting high fat induced obesity

Q: And the “decrease of body weight compared with HFD group” value [2, 11]?
A: 9.84%

Q: What about the body weight ([2]; HFD+DHB group, 8 weeks, HFD group 37 g) of the same molecule?
A: 33.36 g

Q: And the “decrease of body weight compared with NC group” value ([2]; NC+DHB group, 1.5 mg/kg daily intragastric, at the 8th week)?
A: 7.75%

Q: And the body weight ([2]; NC+DHB group, 8 weeks, NC group 33.96 g)?
A: 31.33 g

Q: What about the “increase of GLP-1 compared with untreated control group (HFD)” value (GLP-1 [3]) of the same molecule?
A: 165%

Q: And the “serum GLP-1 relative to mice without DHB supplementation” value (GLP-1 [4])?
A: significantly increase

Q: What about the benefits over time ([5]; 14-week mice experiment, result in words) of the same molecule?
A: Benefits intensified over time rather than plateauing

Q: And the “weight loss compared with untreated control group (HFD group)” value ([5]; by week 7)?
A: about 15%

Q: And the “weight loss compared with untreated control group (HFD group)” value ([5]; by week 13)?
A: about 33%

Q: What about the “pararenal fat pad weight relative to mice without DHB supplementation” value (Weight of the fat pad) of the same molecule?
A: significantly increase

Q: And the “decrease of fasting blood glucose compared with untreated control group (HFD group)” value [6]?
A: about 16%

Q: And the “decrease of fat content compared with HFD group” value ([7]; HFD+DHB group (Group 3))?
A: approximately 19%

Q: And the “decrease of fat content compared with control mice” value ([7]; NC+DHB group (Group 4))?
A: ~35%

Q: What about the “insulin tolerance relative to mice without DHB supplementation” value ([8]; 1.5 mg/kg, result in words) of the same molecule?
A: improve the blood glucose and insulin tolerance

Q: What about the “decrease of AUC of IPTT compared with HFD group” value ([8]; HFD+DHB group (Group 3), 1.5 mg/kg daily intragastric, insulin 1U/kg i.p., 0-120 mins) of the same molecule?
A: about 27%

Q: And the “decrease of AUC of IPTT compared with control mice” value ([8]; NC+DHB group (Group 4), 1.5 mg/kg daily intragastric, insulin 1U/kg i.p., 0-120 mins)?
A: approximately 21%

Q: What about the “serum HDL relative to mice without DHB supplementation” value ([9]; 1.5 mg/kg, result in words) of the same molecule?
A: significantly increase

Q: What about the “serum LDL relative to mice without DHB supplementation” value ([9]; 1.5 mg/kg, result in words) of the same molecule?
A: decrease

Q: What about the “serum TC relative to mice without DHB supplementation” value ([9]; 1.5 mg/kg, result in words) of the same molecule?
A: decrease

Q: What about the “serum TG relative to mice without DHB supplementation” value ([9]; 1.5 mg/kg, result in words) of the same molecule?
A: decrease

Q: What about the “decrease of LDL compared with HFD group” value [9, 11] of the same molecule?
A: 32.3%

Q: What about the “increase in serum HDL compared with HFD group” value [9, 11] of the same molecule?
A: 19%

Q: And the “increase of ratio of HDL/LDL compared with HFD group” value [9, 11]?
A: 76%

Q: And the “reduction in serum TG compared with HFD group” value [9, 11]?
A: 26.1%

Q: And the “reduction of blood TC compared with HFD group” value [9, 11]?
A: 20.6%

Q: And the “decrease of LDL compared with NC group” value [9, 12]?
A: 18.3%

Q: What about the “increase in serum HDL compared with NC group” value [9, 12] of the same molecule?
A: 8.8%

Q: And the “increase of ratio of HDL/LDL compared with NC group” value [9, 12]?
A: 33%

Q: And the “reduction in serum TG compared with NC group” value [9, 12]?
A: 13.2%

Q: And the “reduction of blood TC compared with NC group” value [9, 12]?
A: 9.8%

Q: And the “blood glucose tolerance relative to mice without DHB supplementation” value ([10]; 1.5 mg/kg, result in words)?
A: improve the blood glucose and insulin tolerance

Q: What about the “decrease of AUC of OGTT compared with HFD group” value ([10]; HFD+DHB group (Group 3), 1.5 mg/kg daily intragastric, glucose 2 g/kg, 0-120 mins) of the same molecule?
A: approximately 19%

Q: And the “decrease of AUC of OGTT compared with control mice” value ([10]; NC+DHB group (Group 4), 1.5 mg/kg daily intragastric, glucose 2 g/kg, 0-120 mins)?
A: approximately 10%

Q: What about the “serum INS relative to mice without DHB supplementation” value (insulin (INS)) of the same molecule?
A: decrease
